The assay has as its system DMS 114 tumor spheroids, viability % test/control. Put plainly: Anticancer human tumor DMS 114 cell line growth inhibition.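 For all read-outs here: spheroids exposed to compounds for 7 days before read-out.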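 For viability, T/C: luminescence used as a proxy for viable cells; 100% = DMSO vehicle control viability.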 The note with it: spheroids with HUVEC and MSC; for viability, T/C: stronger effect = lower value. In a few lines:
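Single agents and combinations were tested on spheroids built from tumor cells plus HUVEC and hMSC, at half-log dilutions starting at or near clinical Cmax, else 10 microM; final DMSO 0.25% (v/v).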

Setting [1] is: curve of first compound, second compound 30 pM.
The mark [2] stands for this setting: curve of first compound, second compound 94.9 pM.
Setting [3] is: curve of first compound, second compound 0.0003 µM.
[4] abbreviates: curve of first compound, second compound 0.000949 µM.
Where [5] appears, read: curve of first compound, second compound 0.003 µM.

The structures appear in SMILES notation. “And” between values parts separate entries of the source, which are not always exact repeats. Equal entries are not always repeated.

Broadly, the IC50 is the concentration that gives 50% inhibition. One may read the viability, T/C as the ratio of treated to control. Turning to `Cn1ncnc1[C@H]1c2n[nH]c(=O)c3cc(F)cc(c23)N[C@@H]1c1ccc(F)cc1` + COc1cc2c(cc1O)CCNC21CSC2c3c(OC(C)=O)c(C)c4c(c3C(COC1=O)N1C(O)C3Cc5cc(C)c(OC)c(O)c5C(C21)N3C)OCO4, the IC50 under setting [1] was found to be 428 nM; the IC50 under setting [2] was determined as 104 nM; the IC50 under setting [3] was < 9.49 nM; the IC50 under setting [4] was < 9.49 nM; the half-maximal inhibitory concentration (IC50) under setting [5] is < 9.49 nM. The viability, T/C is 91.6% (second compound 30 pM, first compound 0.00949 µM); 91% (second compound 30 pM, first compound 0.03 µM); 78.4% (second compound 30 pM, first compound 0.0949 µM); 59.6% (second compound 30 pM, first compound 0.3 µM); 29.9% (second compound 30 pM, first compound 0.949 µM); 10.4% (second compound 30 pM, first compound 3 µM). For the same compound, the viability, T/C reads like this: (second compound 94.9 pM, first compound 0.00949 µM) 79.2%; (second compound 94.9 pM, first compound 0.03 µM) 63.3%; (second compound 94.9 pM, first compound 0.0949 µM) 54.6%; (second compound 94.9 pM, first compound 0.3 µM) 33.3%; (second compound 94.9 pM, first compound 0.949 µM) 16.5%; (second compound 94.9 pM, first compound 3 µM) 7.38%. For the same compound, the viability, T/C runs as follows: (second compound 0.0003 µM, first compound 0.00949 µM) 21.8%; (second compound 0.0003 µM, first compound 0.03 µM) 20.3%; (second compound 0.0003 µM, first compound 0.0949 µM) 17.8%; (second compound 0.0003 µM, first compound 0.3 µM) 16.6%; (second compound 0.0003 µM, first compound 0.949 µM) 10.7%; (second compound 0.0003 µM, first compound 3 µM) 5.92%. The viability, T/C is 2.67% (second compound 0.000949 µM, first compound 0.00949 µM); 3.65% (second compound 0.000949 µM, first compound 0.03 µM); 3.4% (second compound 0.000949 µM, first compound 0.0949 µM); 2.16% (second compound 0.000949 µM, first compound 0.3 µM); 1.41% (second compound 0.000949 µM, first compound 0.949 µM); 0.78% (second compound 0.000949 µM, first compound 3 µM). The viability, T/C was 0.32% (second compound 0.003 µM, first compound 0.00949 µM); 0.33% (second compound 0.003 µM, first compound 0.03 µM); 0.3% (second compound 0.003 µM, first compound 0.0949 µM); 0.32% (second compound 0.003 µM, first compound 0.3 µM); 0.28% (second compound 0.003 µM, first compound 0.949 µM); 0.49% (second compound 0.003 µM, first compound 3 µM).

With `Cc1sc2c(c1C)C(c1ccc(Cl)cc1)=NC(CC(=O)Nc1ccc(O)cc1)c1nnc(C)n1-2` (stereo not drawn), the viability, T/C runs as follows: (compound 0.00949 µM) 99% and 105% and 95%; (compound 0.03 µM) 111% and 108% and 107%; (compound 0.0949 µM) 69.5% and 72.7% and 55.8%; (compound 0.3 µM) 27.6% and 24.4% and 18.9%; (compound 0.949 µM) 11.3% and 9.42% and 7.59%; (compound 3 µM) 7.11% and 4.64% and 4.8%. The IC50 (curve of compound) is 164 nM and 116 nM.

For `COc1ccc([C@@H](O)c2cc(-c3ncnc4cc(N5CCOCC5)ccc34)c(F)cc2Cl)nn1` + COc1cc2c(cc1O)CCNC21CSC2c3c(OC(C)=O)c(C)c4c(c3C(COC1=O)N1C(O)C3Cc5cc(C)c(OC)c(O)c5C(C21)N3C)OCO4, the half-inhibitory concentration (IC50) was 4790 nM under setting [1]; 1680 nM under setting [2]; < 31.6 nM under setting [3]; < 31.6 nM under setting [4]; < 31.6 nM under setting [5]. Besides, the viability, T/C by setting is: (second compound 30 pM, first compound 0.0316 µM) 113%; (second compound 30 pM, first compound 0.1 µM) 99.8%; (second compound 30 pM, first compound 0.316 µM) 102%; (second compound 30 pM, first compound 1 µM) 96.7%; (second compound 30 pM, first compound 3.16 µM) 63.7%; (second compound 30 pM, first compound 10 µM) 25.1%. For the same compound, the viability, T/C (second compound 94.9 pM, first compound 0.0316 µM) is 108%; the viability, T/C (second compound 94.9 pM, first compound 0.1 µM) is 101%; the viability, T/C (second compound 94.9 pM, first compound 0.316 µM) is 92.9%; the viability, T/C (second compound 94.9 pM, first compound 1 µM) was 65.2%; the viability, T/C (second compound 94.9 pM, first compound 3.16 µM) was 31.3%; the viability, T/C (second compound 94.9 pM, first compound 10 µM) is 13.3%. In addition, the viability, T/C runs as follows: (second compound 0.0003 µM, first compound 0.0316 µM) 39.6%; (second compound 0.0003 µM, first compound 0.1 µM) 37.6%; (second compound 0.0003 µM, first compound 0.316 µM) 35.7%; (second compound 0.0003 µM, first compound 1 µM) 13.4%; (second compound 0.0003 µM, first compound 3.16 µM) 5.07%; (second compound 0.0003 µM, first compound 10 µM) 2.36%. Besides, the viability, T/C (second compound 0.000949 µM, first compound 0.0316 µM) is 3.78%; the viability, T/C (second compound 0.000949 µM, first compound 0.1 µM) is 3.32%; the viability, T/C (second compound 0.000949 µM, first compound 0.316 µM) was 1.74%; the viability, T/C (second compound 0.000949 µM, first compound 1 µM) was 0.47%; the viability, T/C (second compound 0.000949 µM, first compound 3.16 µM) is 0.07%; the viability, T/C (second compound 0.000949 µM, first compound 10 µM) is 0.17%. For the same compound, the viability, T/C (second compound 0.003 µM, first compound 0.0316 µM) is 0.25%; the viability, T/C (second compound 0.003 µM, first compound 0.1 µM) was 0.28%; the viability, T/C (second compound 0.003 µM, first compound 0.316 µM) is 0.28%; the viability, T/C (second compound 0.003 µM, first compound 1 µM) is 0.31%; the viability, T/C (second compound 0.003 µM, first compound 3.16 µM) is 0.29%; the viability, T/C (second compound 0.003 µM, first compound 10 µM) was 0.36%.

For the compound `CC[C@@]1(O)C(=O)OCc2c1cc1n(c2=O)Cc2cc3c(CN(C)C)c(O)ccc3nc2-1`, the viability, T/C runs as follows: (compound 0.003 µM) 107% [middle of 10 runs]; (compound 0.03 µM) 33.1% [middle of 10 runs]; (compound 0.0949 µM) 16.2% [middle of 10 runs]; (compound 0.3 µM) 10.4% [middle of 10 runs]. Further, the IC50 (compound alone, run of 10/17/2019) was 22.3 nM [middle of 5 runs] and the IC50 (compound alone, run of 10/25/2019) is 20.2 nM [middle of 5 runs].

Values taken from PubChem BioAssay AID1845202 (Molecular Pharmacology Branch, DTP, NCI, 2023).
